Measured values reported in publication PMC9553667, “Pharmacokinetic Analysis of Diosgenin in Rat Plasma by a UPLC-MS/MS Approach” (Journal of Analytical Methods in Chemistry, 2022).
Where two headings read alike, the source gives them in different places.

What was measured:
in vivo = assay: in vivo; design: species or system Male Sprague-Dawley rats; conditions: rat
Experimental: Liquid chromatography was performed using a UPLC system (Waters Corp., Milford, MA, USA) interfaced to a Q-Trap 5500 triple-quadruple mass spectrometer (AB SCIEX, Beijing, China) equipped with an electrospray ionization (ESI) source, as previously described. The isolation was performed on a Waters ACQUITY UPLC BEH C18 rapid resolution high definition column (2.1 × 50 mm, 1.7 μm) at 35°C. The temperature of the UPLC autosampler was 4°C. The mobile phase was mixed with acetonitrile and water (80 : 20, v/v, containing 0.03% formic acid in water). The flow rate was run at 0.3 ml/min. The injection volume was 2 μl, with a total running time of 5 min.
The positive ion multiple reaction monitoring (MRM) mode was used for quantification analysis in the mass analyzers, with the transitions of m/z 415.2⟶271.2 for diosgenin with fragment or voltage of 71.96 V and 295.2⟶277.1 for the IS with fragment or voltage of 120 V. The collision voltages for diosgenin and IS were 23.03 and 25.92 eV, respectively. The other settings were as follows: capillary voltage, 5.5 kV; source temperature, 500°C; curtain gas, 35 Psi; GS1, 50 Psi; GS2, 50 Psi.
Blank plasma samples were obtained from control Sprague-Dawley rats (n = 6). Briefly, 50 μl of the IS solution and 50 μl of plasma were added to a 0.5-ml Eppendorf tube and vortex mixed for 30 s. Methanol-acetonitrile (250 μl; 50 : 50, v/v) was added to the Eppendorf tube, and then, the sample was vortex mixed for 2 min. After centrifuging at 15,000 rpm for 15 min, the supernatants were injected into the UPLC-MS/MS system.
Male Sprague-Dawley rats (n = 12) weighing 180–220 g were supplied by Beijing Vital River Laboratory Animal Technology Co., Ltd. (Beijing, China; license number SCXK2018-0006). According to the ARRIVE guidelines, all experimental rats were kept under appropriate conditions, including proper humidity, temperature, light, diet, and water. Before starting the experiments, the rats were domesticated for 10 days under laboratory conditions to minimize their suffering. All experimental procedures were performed according to the Animal Care and Use Committee of Chengde Medical University (ethical approval no. CDMULAC-20180410016; Chengde, China). The rats were divided into two groups and were orally administered 100 mg/kg diosgenin and ASD (equivalent to 100 mg/kg diosgenin) suspended in a 0.5% w/v CMC–Na aqueous solution.
The caged rats were fasted (water provided ad libitum) for 12 h before the experiment. Before and after single administration of diosgenin, 0.15 ml blood was collected from the inner canthus under 2.5% isoflurane anesthesia in a heparinized blood collection vessel. The blood collection time points were 0.083, 0.25, 0.5, 0.75, 1, 2, 3, 4, 6, 8, 12, 24, 36, 48, and 72 h. Plasma was obtained after centrifugation for 15 min at 15,000 rpm and then stored at –80°C until analysis.
The pharmacokinetic parameters were calculated using noncompartmental pharmacokinetics data analysis software of DAS 3.0 (Drug and Statistics software, Drug Clinical Research Center, Shanghai University of Traditional Chinese Medicine, Shanghai, China). Relative bioavailability (F) was calculated according to the following formula:(1) F%=AUC0⟶∞diosgenin ASD/AUC0⟶∞diosgenin×100%.

[1] = assay type: in vitro ADME, rat; conditions: n = 6; for Measured concentration, autosampler stability: processed rat plasma, autosampler 4°C for 24 h; for Measured concentration, short-term stability / Measured concentration, freeze-thaw stability / Measured concentration, long-term stability: rat plasma; for Measured concentration, short-term stability: 25°C for 8 h; for Measured concentration, long-term stability: −20°C for 30 days
Experimental: Standard working solutions of diosgenin and IS were prepared by diluting stock solutions (100 μg/ml) with methanol. A series of calibration standards and QC working solutions were serially diluted with methanol from the standard solution. The working solutions were diluted with drug-free rat plasma at concentrations of 0.5, 1, 5, 50, 200, 1000, and 1,500 ng/ml. Similarly, the QC samples were made up at 5, 50, and 1,000 ng/ml, and IS was 42 ng/ml. All samples were immediately stored at −20°C.
QC samples in rat plasma at three concentrations were analyzed by assessing the stability of diosgenin under four conditions. Long-term stability was investigated by assaying QC samples kept at −20°C for 30 days. The short-term stability of QC samples was assessed for 8-h storage at 25°C. Freeze-thaw stability was determined by analyzing QC samples after three freeze-thaw cycles (−40°C to 25°C). Postpreparative stability was evaluated after a 24-h placement of QC samples in an autosampler at 4°C after preparation. When the accuracy and the precision were both within ±15% after the four tests, the stabilities were guaranteed.

[2] = assay type: in vitro ADME, rat; conditions: –20°C for 30 days, 25°C for 8 h, three freeze-thaw cycles, 4°C in an autosampler for 12 h
[3] = design: method as in PMID 24954725; conditions: rats; cited from earlier work
[4] = design: method as in PMID 23073665, PMID 20671764; conditions: cited from earlier work
[5] = male, Sprague-Dawley, po, 100 mg/kg

Compound: C[C@@H]1CC[C@@]2(OC1)O[C@H]1C[C@H]3[C@@H]4CC=C5C[C@@H](O)CC[C@]5(C)[C@H]4CC[C@]3(C)[C@H]1[C@@H]2C [Diosgenin]
- CL/F (in vivo; male, Sprague-Dawley, oral, 100 mg/kg diosgenin or equivalent, mean ± SD, n = 6, read-out: CLz/F (converted)): 207 mL/min/kg
- Vd/F (in vivo; male, Sprague-Dawley, oral, 100 mg/kg diosgenin or equivalent, mean ± SD, n = 6, read-out: Vz/F): 231 ± 161 L/kg
- half-life (in vivo; male, Sprague-Dawley, oral, 100 mg/kg diosgenin or equivalent, mean ± SD, n = 6, read-out: t1/2z (converted)): 12.3 ± 3.02 h
- Cmax (in vivo; [5]): 480 ± 121 ng/mL
- MRT last (in vivo; [5]): 22.8 ± 5.55 h
- Tmax (in vivo; [5]): 8.73 ± 5.74 h
- AUC0-t (in vivo; po, 100 mg/kg): 9,302.27 ± 5,013.38 μg/l∗h
- AUC0-∞ (in vivo; po, 100 mg/kg): 9,598.01 ± 5,151.91 μg/l∗h
- Measured concentration, autosampler stability ([1]; indicated 5 ng/ml): 5.32 ± 0.37 ng/mL
- Measured concentration, autosampler stability ([1]; indicated 50 ng/ml): 50.59 ± 3.69 ng/mL
- Measured concentration, autosampler stability ([1]; indicated 1000 ng/ml): 1001.01 ± 62.63 ng/mL
- Measured concentration, short-term stability ([1]; indicated 5 ng/ml): 5.41 ± 0.33 ng/mL
- Measured concentration, short-term stability ([1]; indicated 50 ng/ml): 50.23 ± 2.56 ng/mL
- Measured concentration, short-term stability ([1]; indicated 1000 ng/ml): 1000.88 ± 44.34 ng/mL
- Measured concentration, freeze-thaw stability ([1]; three freeze-thaw cycles (−40°C to 25°C), indicated 5 ng/ml): 5.98 ± 0.35 ng/mL
- Measured concentration, freeze-thaw stability ([1]; three freeze-thaw cycles, indicated 50 ng/ml): 51.69 ± 4.36 ng/mL
- Measured concentration, freeze-thaw stability ([1]; three freeze-thaw cycles, indicated 1000 ng/ml): 1002.9 ± 54.44 ng/mL
- Measured concentration, long-term stability ([1]; indicated 5 ng/ml): 5.99 ± 0.28 ng/mL
- Measured concentration, long-term stability ([1]; indicated 50 ng/ml): 50.02 ± 3.72 ng/mL
- Measured concentration, long-term stability ([1]; indicated 1000 ng/ml): 1001.65 ± 42.42 ng/mL
- Stability in plasma under the storage conditions [2]: remained stable
- Absolute bioavailability [3]: approximately 7%
- Aqueous solubility [4]: poor aqueous solubility
